Structures can show the parent of a compound that is named as a salt. Where two headings read alike, the source gives them in different places.
Tests used:
[1] = biological target: His-GST-TVMV-hRIPK1(1-324) (Homo sapiens (Human), UniProt Q13546); assay: RIPK1 HTRF Binding Assay; conditions: HTRF binding, 1 h at rt; read-out: RIPK1 (IC50)
Procedure, shortened: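 HTRF probe-displacement binding: 1 nM His-GST-TVMV-hRIPK1(1-324) (baculovirus construct), 90.6 nM probe, 0.2 nM anti-GST-Tb in 20 mM HEPES, 10 mM MgCl2, 0.015% Brij-35, 4 mM DTT, 0.05 mg/mL BSA. Incubated 1 h at rt; FRET 520/495 nm ratio, inhibition relative to DMSO-only wells.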

[2] = system: MLKL phosphorylation in HT29-L23 human colorectal adenocarcinoma cells; assay: MLKL Phosphorylation High-Content Assay; assay type: cell-based; conditions: 6 h, necroptosis induced with TNFα, SMAC mimetic and Z-VAD, read-out: pMLKL (IC50)
Procedure, shortened: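 HT29-L23 cells pretreated 30 min at 37 °C with compound (6.25 to 0.106 μM final), then necroptosis induced with TNFα 35 ng/mL, SMAC mimetic 700 nM and Z-VAD 140 nM for 6 h. Fixed cells immunostained for MLKL pS358 and imaged; IC50 and Ymax from 4-parameter logistic fit.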

His-GST-TVMV-hRIPK1(1-324), sequence (Q13546 1-324): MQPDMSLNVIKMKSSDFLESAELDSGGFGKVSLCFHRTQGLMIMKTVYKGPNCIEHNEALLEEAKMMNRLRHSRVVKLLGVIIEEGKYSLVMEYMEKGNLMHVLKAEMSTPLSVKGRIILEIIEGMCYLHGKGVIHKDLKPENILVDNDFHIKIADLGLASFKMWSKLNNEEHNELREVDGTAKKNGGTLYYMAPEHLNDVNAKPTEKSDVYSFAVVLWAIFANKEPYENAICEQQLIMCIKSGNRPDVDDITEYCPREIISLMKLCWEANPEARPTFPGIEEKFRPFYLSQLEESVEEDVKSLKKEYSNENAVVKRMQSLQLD

**Q.** For `COc1nc(C)c(-c2ccc3nc(NC(C)=O)cn3n2)cc1C(=O)NCc1c(F)cc(F)cc1OCC1CCCC1` [Example 308, N-{[2-(cyclopentylmethoxy)-4,6-difluorophenyl]methyl}-5-{2-acetamidoimidazo[1,2-b]pyridazin-6-yl}-2-methoxy-6-methylpyridine-3-carboxamide], which IC50 [1] is on record?
**A.** The IC50 was 8 nM.

**Q.** And the IC50 ([2]; Homo sapiens)?
**A.** Its IC50 is 11 nM.

**Q.** How did the IC50 [1] turn out when `COc1nc(C)c(-c2ccc3nc(NC(C)=O)cn3n2)cc1C(=O)NCc1cccnc1OCC1CCCC1` [Example 313, N-{[2-(cyclopentylmethoxy)pyridin-3-yl]methyl}-5-{2-acetamidoimidazo[1,2-b]pyridazin-6-yl}-2-methoxy-6-methylpyridine-3-carboxamide] was run?
**A.** Its IC50 is 9 nM.

**Q.** What about the IC50 ([2]; Homo sapiens) of the same compound?
**A.** Its IC50 is 22 nM.

**Q.** `CC(=O)Nc1cn2nc(-c3c(F)c(F)cc(C(=O)NCc4cc(OC(F)(F)F)ccc4F)c3F)ccc2n1` [Example 368, 3-{2-acetamidoimidazo [1,2-b]pyridazin-6-yl}-2,4,5-trifluoro-N-{[2-fluoro-5-(trifluoromethoxy)phenyl]methyl} benzamide] was tested. Which IC50 [1] did it give?
**A.** The IC50 was 25 nM.

**Q.** And the IC50 ([2]; Homo sapiens)?
**A.** Its IC50 is 31 nM.

**Q.** With `CC(=O)Nc1cn2nc(-c3ccc(C)c(C(=O)NCc4cc(F)ccc4C(=O)N4CCCCC4)c3)ccc2n1` [Example 408, 5-{2-acetamidoimidazo [1,2-b]pyridazin-6-yl}-N-{[5-fluoro-2-(piperidine-1-carbonyl)phenyl]methyl}-2-methylbenzamide] as the compound, how does the IC50 [1] read?
**A.** Its IC50 is 8 nM.

**Q.** And the IC50 ([2]; Homo sapiens)?
**A.** The IC50 was 8 nM.

**Q.** Which IC50 [1] does the source give for `Cc1nc(C)c(-c2ccc3nc(NC(=O)CO)cn3n2)cc1C(=O)N[C@H](C)c1cc(OC(F)(F)F)ccc1F` [Example 95, N-[(1R)-1-[2-fluoro-5-(trifluoromethoxy)phenyl]ethyl]-5-[2-(2-hydroxyacet-amido)imidazo[1,2-b]pyridazin-6-yl]-2,6-dimethylpyridine-3-carboxamide] here?
**A.** The IC50 was 30 nM.

**Q.** What about the IC50 ([2]; Homo sapiens) of the same compound?
**A.** Its IC50 is 68 nM.

**Q.** Which results are given for `[2H]C([2H])([2H])[C@H](NC(=O)c1ccc(C)c(-c2ccc3nc(NC(C)=O)cn3n2)c1F)c1cc(OC(F)(F)F)ccc1F` [Example 429, 3-{2-acetamidoimidazo [1,2-b]pyridazin-6-yl}-2-fluoro-N-[(1S)-1-[2-fluoro-5-(trifluoromethoxy)phenyl](2,2,2-Â^2Hâ,f)ethyl]-4-methylbenzamide]?
**A.** IC50 [1]: 9 nM; IC50 ([2]; Homo sapiens): 20 nM

**Q.** Which IC50 [1] does the source give for `COc1ncc(-c2ccc3nc(NC(C)=O)cn3n2)cc1C(=O)NCc1ccccc1OC(C)C` [Example 165, 5-{2-acetamidoimidazo[1,2-b]pyridazin-6-yl}-2-methoxy-N-{[2-(propan-2-yloxy)phenyl]methyl}pyridine-3-carboxamide] here?
**A.** Its IC50 is 4 nM.

**Q.** What about the IC50 ([2]; Homo sapiens) of the same compound?
**A.** The IC50 was 11 nM.

**Q.** `COc1nc(C)c(-c2ccc3nc(NC(C)=O)cn3n2)cc1C(=O)NCCc1cccc(OC(F)(F)F)c1` [Example 304, 5-{2-acetamidoimidazo[1,2-b]pyridazin-6-yl}-2-methoxy-6-methyl-N-{2-[3-(trifluoromethoxy)phenyl]ethyl}pyridine-3-carboxamide] was tested. Which IC50 [1] did it give?
**A.** Its IC50 is 206 nM.

**Q.** What about the IC50 ([2]; Homo sapiens) of the same compound?
**A.** Its IC50 is 67 nM.

**Q.** With `COc1ncc(-c2ccc3nc(NC(C)=O)cn3n2)cc1C(=O)NCc1ncccc1OC1CCCC1` [Example 163, N-{[3-(cyclopentyloxy)pyridin-2-yl]methyl}-5-{2-acetamidoimidazo[1,2-b]pyridazin-6-yl}-2-methoxypyridine-3-carboxamide] as the compound, how does the IC50 [1] read?
**A.** Its IC50 is 12 nM.

**Q.** And the IC50 ([2]; Homo sapiens)?
**A.** Its IC50 is 17 nM.

**Q.** Which IC50 [1] does the source give for `CC(=O)Nc1cn2nc(-c3cccc(C(=O)NCc4cc(OC(F)(F)F)ccc4F)c3F)ccc2n1` [Example 424, 3-{2-acetamidoimidazo [1,2-b]pyridazin-6-yl}-2-fluoro-N-{[2-fluoro-5-(trifluoromethoxy)phenyl]methyl} benzamide] here?
**A.** The IC50 was 2 nM.

**Q.** And the IC50 ([2]; Homo sapiens)?
**A.** Its IC50 is 3 nM.

**Q.** With `CC(=O)Nc1cn2nc(-c3cc(C(=O)NCc4cccc(F)c4OCC4CC4)cnc3C)ccc2n1` [Example 232, N-{[2-(cyclopropylmethoxy)-3-fluorophenyl]methyl}-5-{2-acetamidoimidazo[1,2-b]pyridazin-6-yl}-6-methylpyridine-3-carboxamide] as the compound, how does the IC50 [1] read?
**A.** The IC50 was 4 nM.

**Q.** And the IC50 ([2]; Homo sapiens)?
**A.** The IC50 was 4 nM.

**Q.** Which IC50 [1] does the source give for `CC(=O)Nc1cn2nc(-c3cnc(C)c(C(=O)NCc4cccc(F)c4OCC4CC4)c3)ccc2n1` [Example 212, N-{[2-(cyclopropylmethoxy)-3-fluorophenyl]methyl}-5-{2-acetamidoimidazo [1,2-b]pyridazin-6-yl}-2-methylpyridine-3-carboxamide] here?
**A.** The IC50 was 8 nM.

**Q.** What about the IC50 ([2]; Homo sapiens) of the same compound?
**A.** The IC50 was 4 nM.

**Q.** Which IC50 [1] does the source give for `[2H]C([2H])([2H])Oc1ncc(-c2ccc3nc(NC(C)=O)cn3n2)cc1C(=O)NC(C)c1cc(C(F)(F)F)ccc1F` (stereo not shown) [Example 51, 5-{2-acetamidoimidazo[1,2-b]pyridazin-6-yl}-N-{1-[2-fluoro-5-(trifluoromethyl)phenyl]ethyl}-2-(D3)methoxypyridine-3-carboxamide] here?
**A.** The IC50 was 63 nM.

**Q.** And the IC50 ([2]; Homo sapiens)?
**A.** The IC50 was 200 nM.

**Q.** What does the source list for `CC(=O)Nc1cn2nc(-c3cc(C(=O)N[C@H](C)c4cc(OC(F)(F)F)ccc4F)c(Cl)cc3F)ccc2n1` [Example 392, 2-chloro-5-{2-acetamidoimidazo [1,2-b]pyridazin-6-yl}-4-fluoro-N-[(1R)-1-[2-fluoro-5-(trifluoromethoxy)phenyl]ethyl] benzamide]?
**A.** IC50 [1]: 36 nM; IC50 ([2]; Homo sapiens): 72 nM

**Q.** `CC(=O)Nc1cn2nc(-c3cncc(C(=O)N[C@H](C)c4cc(OC(F)(F)F)ccc4F)c3)ccc2n1` [Example 235, 5-{2-acetamidoimidazo[1,2-b]pyridazin-6-yl}-N-[(1R)-1-[2-fluoro-5-(trifluoromethoxy)phenyl]ethyl]pyridine-3-carboxamide] was tested. Which IC50 [1] did it give?
**A.** Its IC50 is 345 nM.

**Q.** And the IC50 ([2]; Homo sapiens)?
**A.** Its IC50 is 355 nM.

**Q.** `Cc1ncc(-c2ccc3nc(NC(=O)CN4CCCC4)cn3n2)cc1C(=O)N[C@H](C)c1cc(C(F)(F)F)ccc1F` [Example 333, N-[(1R)-1-[2-fluoro-5-(trifluoromethyl)-phenyl]ethyl]-2-methyl-5-{2-[2-(pynolidin-1-yl)acetamido]imidazo[1,2-b]pyridazin-6-yl}pyridine-3-carboxamide] was tested. Which IC50 [1] did it give?
**A.** The IC50 was 91 nM.

**Q.** What about the IC50 ([2]; Homo sapiens) of the same compound?
**A.** The IC50 was 218 nM.

**Q.** Which IC50 [1] does the source give for `COCC(=O)Nc1cn2nc(-c3cnc(OC)c(C(=O)NCc4cc(F)cc(F)c4OCC4CC4)c3)ccc2n1` [Example 261, N-{[2-(cyclopropylmethoxy)-3,5-difluorophenyl]methyl}-2-methoxy-5-[2-(2-methoxyacetamido)imidazo[1,2-b]pyridazin-6-yl]pyridine-3-carboxamide, TFA] here?
**A.** Its IC50 is 7 nM.

**Q.** And the IC50 [2]?
**A.** Its IC50 is 8 nM.

**Q.** Which IC50 [1] does the source give for `COc1ncc(-c2ccc3nc(NC(C)=O)cn3n2)cc1C(=O)NCc1ccccc1OC1CCCC1` [Example 159, N-{[2-(cyclopentyloxy)phenyl]methyl}-5-{2-acetamidoimidazo[1,2-b]pyridazin-6-yl}-2-methoxypyridine-3-carboxamide] here?
**A.** Its IC50 is 3 nM.

**Q.** What about the IC50 ([2]; Homo sapiens) of the same compound?
**A.** Its IC50 is 6 nM.

**Q.** For `CC(=O)Nc1cn2nc(-c3ccc(Cl)c(C(=O)NCC[C@H](O)c4ccc(Cl)cc4)c3F)ccc2n1` [Example 390, 6-chloro-N-[(3S)-3-(4-chlorophenyl)-3-hydroxypropyl]-3-{2-acetamidoimidazo [1,2-b]pyridazin-6-yl}-2-fluorobenzamide], which IC50 [1] is on record?
**A.** The IC50 was 5 nM.

**Q.** What about the IC50 ([2]; Homo sapiens) of the same compound?
**A.** The IC50 was 3 nM.

**Q.** Which IC50 [1] does the source give for `CC(=O)Nc1cn2nc(-c3ccc(C(F)(F)F)c(C(=O)NCc4cc(C(F)(F)F)ccc4F)c3)ccc2n1` [Example 385, 5-{2-acetamidoimidazo [1,2-b]pyridazin-6-yl}-N-{[2-fluoro-5-(trifluoromethyl)phenyl]methyl}-2-(trifluoromethyl) benzamide] here?
**A.** Its IC50 is 57 nM.

**Q.** And the IC50 ([2]; Homo sapiens)?
**A.** Its IC50 is 189 nM.

**Q.** How did the IC50 [1] turn out when `CNCC(=O)Nc1cn2nc(-c3cc(F)c(C)c(C(=O)NCC[C@H](O)c4ccc(Cl)cc4)c3)ccc2n1` [Example 363, N-[(3S)-3-(4-chlorophenyl)-3-hydroxypropyl]-3-fluoro-2-methyl-5-{2-[2-(methylamino)acetamido]imidazo[1,2-b]pyridazin-6-yl}benzamide] was run?
**A.** The IC50 was 65 nM.

**Q.** And the IC50 ([2]; Homo sapiens)?
**A.** Its IC50 is 47 nM.

**Q.** With `CC(=O)Nc1cn2nc(-c3cc(F)c(C)c(C(=O)NCc4c(F)cccc4C(=O)N4CCC(F)(F)C4)c3)ccc2n1` [Example 365, N-{[2-(3,3-difluoropyrrolidine-1-carbonyl)-6-fluorophenyl]methyl}-5-{2-acetamidoimidazo [1,2-b]pyridazin-6-yl}-3-fluoro-2-methylbenzamide] as the compound, how does the IC50 [1] read?
**A.** The IC50 was 37 nM.

**Q.** What about the IC50 ([2]; Homo sapiens) of the same compound?
**A.** Its IC50 is 116 nM.

**Q.** Which results are given for `CC(=O)Nc1cn2nc(-c3cnc(C)c(C(=O)NCc4cc(F)ccc4OCC4CCCC4)c3)ccc2n1` [Example 218, N-{[2-(cyclopentylmethoxy)-5-fluorophenyl]methyl}-5-{2-acetamidoimidazo[1,2-b]pyridazin-6-yl}-2-methylpyridine-3-carboxamide]?
**A.** IC50 [1]: 6 nM; IC50 ([2]; Homo sapiens): 15 nM

**Q.** Which results are given for `Cc1ncc(-c2ccc3nc(NC(=O)C(C)(C)C#N)cn3n2)cc1C(=O)NCc1ccccc1Sc1ccccc1CO` [Example 26, 5-[2-(2-cyano-2,2-dimethylacetamido)imidazo[1,2-b]pyridazin-6-yl]-N-[(2-{[2-(hydroxymethyl)phenyl]sulfanyl}phenyl)methyl]-2-methylpyridine-3-carboxamide]?
**A.** IC50 [1]: 25 nM; IC50 ([2]; Homo sapiens): 192 nM

**Q.** How did the IC50 [1] turn out when `CC(=O)Nc1cn2nc(-c3cnc(Cl)c(C(=O)NCc4cc(C(F)(F)F)ccc4Cl)c3)ccc2n1` [Example 274, 2-chloro-N-{[2-chloro-5-(trifluoromethyl)phenyl]methyl}-5-{2-acetamidoimidazo[1,2-b]pyridazin-6-yl}pyridine-3-carboxamide, TFA] was run?
**A.** The IC50 was 11 nM.

**Q.** And the IC50 ([2]; Homo sapiens)?
**A.** Its IC50 is 31 nM.

**Q.** With “5-{2- acetamidoimidazo [1,2-b]pyridazin- 6-yl}-N-[(1R)- 1-[2-fluoro-5- (trifluoromethyl) phenyl](2,2,2-Â^2Hâ,f) ethyl]-2 methylbenzamide [Example 425]” as the compound, how does the IC50 [1] read?
**A.** The IC50 was > 5000 nM.

**Q.** What about the IC50 [2] of the same compound?
**A.** Its IC50 is 327 nM.
